Measurements taken from patent US20120021011A1, “ANTI-INFLAMMATORY PHARMACEUTICAL COMPOSITION COMPRISING EXTRACTS FROM BROUSSONETIA PAPYRIFERA AND LONICERA JAPONICA” (Knu-Industry Cooperation Foundation, priority 2009, published 2012).

What was measured:
[1] = test system: acetic acid-induced writhing; experiment: Acetic acid-induced writhing test on mice; type: in vivo, mouse; details: for Numbers of writhings: mean ± SD
Experimental: In order to measure an antinociceptive activity, 1% acetic acid (100 μl) was intraperitoneally injected to a mouse. 10 minutes after the injection of the acetic acid, the number of writhings was counted for 10 minutes. Before the injection of the acetic acid, a test material dissolved in a mixture including DMSO and water at a ratio of 1:1 was orally administered (0.1 ml/mouse).
Each group consisted of 6 mice. Measurement values were represented by arithmetic mean±SD (a of Table 3). b of Table 3 indicates an inhibitory activity % compared to the control group treated with the acetic acid. * indicates a significant difference of P<0.05 compared to the acetic acid-treated control group.

[2] = test system: AA-induced mouse ear edema; experiment: Arachidonic acid (AA)-induced mouse ear edema; type: in vivo; details: 20 mg/kg oral
Experimental: AA-induced mouse ear edema assay was used to identify an anti-inflammatory activity in vivo in anti-inflammatory animal model. According to a method disclosed in Kim et al. (1993), 2% AA acetone solution was applied to an ear of a mouse (20 μl/ear), and after one hour, a thickness of the ear was measured using a dial thickness gauge (Mitutoyo, Japan). One hour before the AA treatment, a test material dissolved in a mixture including DMSO and water at a mixture ratio of 1:1 was orally administered to the mouse (0.1 ml/mouse).

[3] = test system: CGN-induced mouse paw edema; experiment: λ-Carrageenan (CGN)-induced mouse paw edema; type: in vivo; details: for Paw volume increased: 5 h after CGN, mean ± SD
Experimental: Mouse CGN-induced paw edema assay was performed to measure an anti-inflammatory activity according to a slightly modified method disclosed in Winter et al. (1962). […] If the volume was greater than that before the addition of CGN, it was deemed that edema developed. The test material was dissolved in a mixture including DMSO and water at a mixture ratio of 1:1 and then was orally administered. A volume of a negative control group which was not treated with CGN was 0.149±0.025 ml.

5-LOX = target: T1, 5-LOX (Rattus norvegicus, UniProt P12527); experiment: 5-LOX-mediated cysteinyl leukotriene (LTC4/D4/E4) production in A23187-treated RBL-1 cells; type: cell-based; details: 1 nM, read-out: 5-LOX inhibitory activity
T1 construct: RBL-1 cells obtained from American Type Culture Collection; endogenous in cells; host or cells: RBL-1 (rat basophilic leukemia) cells, ATCC
T1 sequence (P12527 1-673): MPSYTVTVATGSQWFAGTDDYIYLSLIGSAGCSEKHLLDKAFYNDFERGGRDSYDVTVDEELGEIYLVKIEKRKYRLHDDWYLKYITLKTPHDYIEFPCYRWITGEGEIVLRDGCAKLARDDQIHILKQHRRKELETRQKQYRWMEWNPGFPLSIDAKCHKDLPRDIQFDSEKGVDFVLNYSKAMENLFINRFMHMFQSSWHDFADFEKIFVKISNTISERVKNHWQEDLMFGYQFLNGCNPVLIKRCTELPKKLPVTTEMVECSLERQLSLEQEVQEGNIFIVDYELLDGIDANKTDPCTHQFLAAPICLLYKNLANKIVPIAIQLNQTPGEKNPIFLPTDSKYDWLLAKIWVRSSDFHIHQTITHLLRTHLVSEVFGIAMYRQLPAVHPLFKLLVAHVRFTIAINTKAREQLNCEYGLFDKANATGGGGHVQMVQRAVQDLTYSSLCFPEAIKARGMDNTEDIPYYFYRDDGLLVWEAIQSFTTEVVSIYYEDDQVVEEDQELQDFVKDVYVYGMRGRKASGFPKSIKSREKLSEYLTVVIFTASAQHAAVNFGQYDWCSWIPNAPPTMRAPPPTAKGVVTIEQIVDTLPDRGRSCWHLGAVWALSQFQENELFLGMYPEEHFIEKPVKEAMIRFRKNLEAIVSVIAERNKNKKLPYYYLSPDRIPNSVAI
Experimental: The cells were placed on 96-well plates for 2 hours, and incubated in advance with a test material for 10 minutes. The test material was dissolved in DMSO and diluted with serum-free DMEM at an appropriate concentration. The final concentration of DMSO was adjusted to be 0.1% (v/v). […] A medium used was collected and a concentration of cysteinyl leukotrienes (LTC4/D4/E4) produced by 5-LOX was measured using an ELISA kit (Cayman Chem.) according to a method recommended by the manufacturer.
It is known that when RBL-1 cells are activated by A23187 (calcium ionophore), a great amount of cysteinyl-LTs is generated by 5-LOX.

For `CC(=O)Oc1ccccc1C(=O)O` [Aspirin, aspirin], which “inhibitory activity % compared to the acetic acid-treated control group (writhings)” value ([1]; Exp. 1, 100 mg/kg oral) is on record?
Its value is 60.9%.

What about the Numbers of writhings ([1]; Exp. 1, 100 mg/kg oral) of the same compound?
Its Numbers of writhings is 5.7 ± 3.8.

What about the “inhibitory activity % compared to the acetic acid-treated control group (writhings)” value ([1]; Exp. 2, 100 mg/kg oral) of the same compound?
Its value is 46.1%.

What about the Numbers of writhings ([1]; Exp. 2, 100 mg/kg oral) of the same compound?
Its Numbers of writhings is 9.6 ± 3.2.

Which “inhibitory activity % compared to the AA-treated control group (ear edema)” value [2] does the source give for `COc1ccc2c(c1)c(CC(=O)O)c(C)n2C(=O)c1ccc(Cl)cc1` [Indomethacin, indomethacin] here?
The value was 70%.

And the Ear thickness increased ([2]; 1 h after AA, mean ± SD)?
Its Ear thickness increased is 0.021 ± 0.013 mm.

What about the “inhibitory activity % compared to the CGN-treated control group (paw edema)” value (from here on “inhibitory activity % … (paw edema)”) ([3]; 20 mg/kg oral) of the same compound?
The value was 23.7%.

And the Paw volume increased ([3]; 20 mg/kg oral)?
The Paw volume increased was 0.116 ± 0.039 mL.

And the “inhibitory activity % … (paw edema)” value ([3]; 100 mg/kg oral)?
Its value is 44.7%.

And the Paw volume increased ([3]; 100 mg/kg oral)?
The Paw volume increased was 0.084 ± 0.019 mL.

How did the inhibition at 0.001 µM (5-LOX) turn out when `CC(Cc1ccc(O)c(O)c1)C(C)Cc1ccc(O)c(O)c1` (stereo not shown) [NDGA, nordihydroguaiaretic acid] was run?
The inhibition at 0.001 µM was 99%.

`C[C@]12C=CC(=O)C=C1CC[C@@H]1[C@@H]2[C@@H](O)C[C@@]2(C)[C@H]1CC[C@]2(O)C(=O)CO` [Prednisolone, prednisolone] was tested. Which “inhibitory activity % … (paw edema)” value ([3]; 20 mg/kg oral) did it give?
Its value is 50.0%.

What about the Paw volume increased ([3]; 20 mg/kg oral) of the same compound?
The Paw volume increased was 0.076 ± 0.011 mL.
